In US10204206B2, “Modelling of the action of an optical fiber in photodynamic therapy treatment, and assistance in the planning of said treatment” (STEBA MAOR SA, priority 2010, dated 2019):

Tested on: prostate
Test: Clinical trials of photodynamic therapy of prostate cancer: action radius of the optical fiber fitted to the actual necrotic volume
Format: in vivo, patients
Settings: 28 clinical trials; 4 mg/kg; optical fiber at 763 nm; insertion lengths 15 to 40 mm; accuracy 1.08 mm
Source text: In this study, the Applicant has validated its modeling method for the use of an optical fiber with specific wavelength of 763 nm, in association with the WST11 photosensitive agent, for the treatment of prostate cancer. It is easily understood that the principles of modeling, as well as those of assistance in planning resulting from this modeling, can be used for other combinations of optical fibers and photosensitive agents, and applied to the treatment of other organs.
In reference to FIG. 2, the modeling method 100 thus includes a preliminary step 110 of constructing a database of results from clinical trials conducted previously on a plurality of patients using the same photosensitive material at the same dosage, such as 4 mg/kg of WST11, associated with at least one optical fiber that we seek to model. This construction consists of storing one record per patient in the database with at least the following elements: […]
Once steps 120 and 130 have been carried out, the only thing left to do is to determine, in a step 140 referenced in FIG. 2, the action radius R of an optical fiber by correlation, for each patient in the database, with the total theoretical action volume calculated with the measured volume of the actual necrotic area. […]

In the case of `CC[C@H]1c2cc3[n-]c(c(CC(=O)OC)c4nc(cc5[n-]c(cc(n2)[C@@H]1C)c(C(C)=O)c5C)[C@@H](C)[C@@H]4CCC(=O)[O-])c(C(=O)NCCS(=O)(=O)[O-])c3C.[H+].[H+].[Pd+2]` [WST11], the “average action radius R of an optical fiber (value for which theoretical volume was closest to the volume of the actual necrotic area)” value is reported as 7.49 mm.
